This note sets out measurements from PubChem BioAssay AID180 (DTP/NCI, 2004).

The subject of the assay is BDF1 mice, Adenocarcinoma 755 s.c., tumor weight T/C. The assay is described as follows: NCI In Vivo Anticancer Drug Screen. Data for tumor model Adenocarcinoma 755 (subcutaneous) in B6D2F1 (BDF1) mice. To be noted: endpoint: mean tumor weight, higher = larger tumour. The essentials: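 Readout: T/C, i.e. treated-group measurement over vehicle-control measurement. Endpoint is survival or tumor size in tumor-bearing mice given compound.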

[1] abbreviates: dose: 113.0 mg/kg/injection, schedule: Q01DX011 (ip), vehicle: carboxymethylcellulose (CMC).
[2] abbreviates: dose: 225.0 mg/kg/injection, schedule: Q01DX011 (ip), vehicle: carboxymethylcellulose (CMC).
Setting [3] is: dose: 50.0 mg/kg/injection, schedule: Q01DX011 (ip), vehicle: other.
Where [4] appears, read: dose: 75.0 mg/kg/injection, schedule: Q01DX011 (ip), vehicle: methylcellulose (MC).
[5] abbreviates: dose: 150.0 mg/kg/injection, schedule: Q01DX011 (ip), vehicle: methylcellulose (MC).

The structures appear in SMILES notation. Several values for one entry are separate records, joined by “and”; a condition that tells them apart may be missing. Equal entries are not always repeated.

Take `CC1CC2(C)C(=CC1=O)CCC1C3CCC(C)(O)C3(C)CC(O)C12F` (configuration not stated): the T/C is, setting by setting: (dose: 200.0 mg/kg/injection, schedule: Q01DX011 (sc), vehicle: steriod suspending solution) 106 % of control; (dose: 400.0 mg/kg/injection, schedule: Q01DX011 (sc), vehicle: steriod suspending solution) 92 % of control.

`CN(C)C1C(=O)C(C(N)=O)=C(O)C2(O)C(=O)C3=C(O)c4c(O)cccc4C(C)(O)C3C(O)C12` (configuration not stated): the T/C reads like this: (dose: 19.5 mg/kg/injection, schedule: Q01DX011 (ip), vehicle: carboxymethylcellulose (CMC)) 78 % of control; (dose: 19.86 mg/kg/injection, schedule: Q01DX011 (ip), vehicle: carboxymethylcellulose (CMC)) 106 % of control; (dose: 31.25 mg/kg/injection, schedule: Q01DX011 (ip), vehicle: methylcellulose (MC)) 117 % of control; (dose: 39.0 mg/kg/injection, schedule: Q01DX011 (ip), vehicle: carboxymethylcellulose (CMC)) 91 % of control; (dose: 50.0 mg/kg/injection, schedule: Q01DX011 (ip), vehicle: water) 81 % of control; (dose: 62.4 mg/kg/injection, schedule: Q01DX011 (ip), vehicle: carboxymethylcellulose (CMC)) 46 % of control. Also, the T/C was 69 % of control (dose: 62.5 mg/kg/injection, schedule: Q01DX011 (ip), vehicle: methylcellulose (MC)); 119 % of control (dose: 63.56 mg/kg/injection, schedule: Q01DX011 (ip), vehicle: carboxymethylcellulose (CMC)); 95 % of control and 110 % of control (dose: 78.0 mg/kg/injection, schedule: Q01DX011 (ip), vehicle: carboxymethylcellulose (CMC)); 92 % of control and 75 % of control and 87 % of control (dose: 79.45 mg/kg/injection, schedule: Q01DX011 (ip), vehicle: carboxymethylcellulose (CMC)); 45 % of control (dose: 100.0 mg/kg/injection, schedule: Q01DX011 (ip), vehicle: water); 65 % of control (dose: 104.0 mg/kg/injection, schedule: Q01DX011 (ip), vehicle: carboxymethylcellulose (CMC)). Further, the T/C was 96 % of control and 87 % of control (dose: 105.93 mg/kg/injection, schedule: Q01DX011 (ip), vehicle: carboxymethylcellulose (CMC)); 73 % of control (dose: 125.0 mg/kg/injection, schedule: Q01DX011 (ip), vehicle: methylcellulose (MC)); 14 % of control (dose: 150.0 mg/kg/injection, schedule: Q01DX011 (ip), vehicle: water).

With `CC(CNC(=O)CCOS(C)(=O)=O)CNC(=O)CCOS(C)(=O)=O`, the T/C is, setting by setting: (dose: 6.25 mg/kg/injection, schedule: Q01DX011 (ip), vehicle: carboxymethylcellulose (CMC)) 120 % of control; (dose: 12.5 mg/kg/injection, schedule: Q01DX011 (ip), vehicle: carboxymethylcellulose (CMC)) 92 % of control; (dose: 14.0 mg/kg/injection, schedule: Q01DX011 (ip), vehicle: carboxymethylcellulose (CMC)) 73 % of control; (dose: 25.0 mg/kg/injection, schedule: Q01DX011 (ip), vehicle: carboxymethylcellulose (CMC)) 111 % of control; (dose: 28.0 mg/kg/injection, schedule: Q01DX011 (ip), vehicle: carboxymethylcellulose (CMC)) 108 % of control; (dose: 50.0 mg/kg/injection, schedule: Q01DX011 (ip), vehicle: carboxymethylcellulose (CMC)) 39 % of control. Further, the T/C by setting is: (dose: 57.0 mg/kg/injection, schedule: Q01DX011 (ip), vehicle: carboxymethylcellulose (CMC)) 72 % of control; (dose: 100.0 mg/kg/injection, schedule: Q01DX011 (ip), vehicle: carboxymethylcellulose (CMC)) 15 % of control; under setting [1], 20 % of control and 36 % of control; (dose: 200.0 mg/kg/injection, schedule: Q01DX011 (ip), vehicle: carboxymethylcellulose (CMC)) 2 % of control; under setting [2], 4 % of control.

Consider `C=CC1OCCN1CC` (configuration not stated), for which the T/C by setting is: (dose: 12.5 mg/kg/injection, schedule: Q01DX011 (ip), vehicle: other) 106 % of control; under setting [3], 87 % of control.

For the compound `O=S=Nc1ccccc1`, the T/C (dose: 351.0 mg/kg/injection, schedule: Q01DX011 (ip), vehicle: carboxymethylcellulose (CMC)) was 64 % of control.

For `CC(=O)OCCOc1ccc(C(C)(C)C)cc1`, the T/C reads like this: (dose: 57.0 mg/kg/injection, schedule: Q01DX011 (ip), vehicle: methylcellulose (MC)) 57 % of control; under setting [1], 122 % of control; (dose: 113.0 mg/kg/injection, schedule: Q01DX011 (ip), vehicle: methylcellulose (MC)) 83 % of control; under setting [2], 171 % of control; (dose: 225.0 mg/kg/injection, schedule: Q01DX011 (ip), vehicle: methylcellulose (MC)) 47 % of control; (dose: 450.0 mg/kg/injection, schedule: Q01DX011 (ip), vehicle: carboxymethylcellulose (CMC)) 107 % of control. The T/C (dose: 500.0 mg/kg/injection, schedule: Q01DX011 (ip), vehicle: carboxymethylcellulose (CMC)) is 70 % of control and the T/C (dose: 600.0 mg/kg/injection, schedule: Q01DX011 (ip), vehicle: carboxymethylcellulose (CMC)) was 65 % of control.

Regarding `Clc1ncc2[nH]c(Cl)nc2n1`, the T/C (dose: 30.0 mg/kg/injection, schedule: Q01DX011 (ip), vehicle: carboxymethylcellulose (CMC)) is 96 % of control and the T/C (dose: 60.0 mg/kg/injection, schedule: Q01DX011 (ip), vehicle: carboxymethylcellulose (CMC)) was 112 % of control.

As to `CC(=O)OCC(=O)[C@@]1(O)CC[C@H]2[C@@H]3CCC4=CC(=O)C=C[C@]4(C)[C@H]3[C@@H](O)C[C@@]21C`, the T/C was 23 % of control and 26 % of control (dose: 20.0 mg/kg/injection, schedule: Q01DX011 (sc), vehicle: steriod suspending solution); 24 % of control and 26 % of control (dose: 40.0 mg/kg/injection, schedule: Q01DX011 (sc), vehicle: steriod suspending solution); 30 % of control (dose: 67.5 mg/kg/injection, schedule: Q01DX011 (sc), vehicle: steriod suspending solution); 88 % of control (dose: 80.0 mg/kg/injection, schedule: Q01DX011 (sc), vehicle: steriod suspending solution); 40 % of control (dose: 160.0 mg/kg/injection, schedule: Q01DX011 (sc), vehicle: steriod suspending solution).

Regarding `Cc1cccc(-c2c3ccccc3cc3c2ccc2ccccc23)c1`, the T/C is 96 % of control (dose: 30.0 mg/kg/injection, schedule: Q01DX011 (ip), vehicle: methylcellulose (MC)); 76 % of control (dose: 60.0 mg/kg/injection, schedule: Q01DX011 (ip), vehicle: methylcellulose (MC)); 79 % of control (dose: 120.0 mg/kg/injection, schedule: Q01DX011 (ip), vehicle: methylcellulose (MC)); 119 % of control (dose: 240.0 mg/kg/injection, schedule: Q01DX011 (ip), vehicle: methylcellulose (MC)).

Regarding `O=C1Nc2ccccc2SC1c1ccccc1Cl` (configuration not stated), the T/C under setting [4] was 94 % of control and 78 % of control; the T/C under setting [5] was 54 % of control and 60 % of control.

For the compound `c1ccc2c(c1)ccc1cc3c(ccc4ccccc43)cc12`, the T/C runs as follows: (dose: 12.5 mg/kg/injection, schedule: Q01DX011 (ip), vehicle: methylcellulose (MC)) 24 % of control; (dose: 25.0 mg/kg/injection, schedule: Q01DX011 (ip), vehicle: methylcellulose (MC)) 44 % of control; (dose: 25.0 mg/kg/injection, schedule: Q01DX011 (ip), vehicle: other) 60 % of control; under setting [3], 42 % of control; (dose: 100.0 mg/kg/injection, schedule: Q01DX011 (ip), vehicle: other) 36 % of control; (dose: 400.0 mg/kg/injection, schedule: Q01DX011 (ip), vehicle: methylcellulose (MC)) 24 % of control and 25 % of control. In addition, the T/C runs as follows: (dose: 600.0 mg/kg/injection, schedule: Q01DX011 (ip), vehicle: methylcellulose (MC)) 31 % of control; (dose: 600.0 mg/kg/injection, schedule: Q01DX011 (ip), vehicle: other) 12 % of control.

`Nc1nc(SCC(=O)c2ccccc2)c2ncn(C3OC(CO)C(O)C3O)c2n1` (configuration not stated): the T/C is 15 % of control (dose: 37.5 mg/kg/injection, schedule: Q01DX011 (ip), vehicle: methylcellulose (MC)); 5 % of control under setting [4]; 5 % of control under setting [5].

For `NC(CO)(CO)CO`, the T/C is 72 % of control (dose: 125.0 mg/kg/injection, schedule: Q01DX011 (ip), vehicle: saline); 69 % of control (dose: 250.0 mg/kg/injection, schedule: Q01DX011 (ip), vehicle: saline); 75 % of control (dose: 500.0 mg/kg/injection, schedule: Q01DX011 (ip), vehicle: saline); 84 % of control (dose: 1000.0 mg/kg/injection, schedule: Q01DX011 (ip), vehicle: saline).

The T/C is the result in the treated group divided by that in the control group, in per cent.
